Test results reported in ChEMBL document CHEMBL2073741, “MRP8, ATP-binding cassette C11 (ABCC11), is a cyclic nucleotide efflux pump and a resistance factor for fluoropyrimidines 2',3'-dideoxycytidine and 9'-(2'-phosphonylmethoxyethyl)adenine” (J Biol Chem, 2003).

Molecular target: ATP-binding cassette sub-family C member 11 (Homo sapiens) (UniProt Q96J66)
Experiment: TP_TRANSPORTER: transport into inside-out membrane vesicles in membrane vesicle from MRP8-2-expressing LLC-PK1 cells
Type: functional, cell membranes

ATP-binding cassette sub-family C member 11 (Homo sapiens), sequence (Q96J66 whole entry): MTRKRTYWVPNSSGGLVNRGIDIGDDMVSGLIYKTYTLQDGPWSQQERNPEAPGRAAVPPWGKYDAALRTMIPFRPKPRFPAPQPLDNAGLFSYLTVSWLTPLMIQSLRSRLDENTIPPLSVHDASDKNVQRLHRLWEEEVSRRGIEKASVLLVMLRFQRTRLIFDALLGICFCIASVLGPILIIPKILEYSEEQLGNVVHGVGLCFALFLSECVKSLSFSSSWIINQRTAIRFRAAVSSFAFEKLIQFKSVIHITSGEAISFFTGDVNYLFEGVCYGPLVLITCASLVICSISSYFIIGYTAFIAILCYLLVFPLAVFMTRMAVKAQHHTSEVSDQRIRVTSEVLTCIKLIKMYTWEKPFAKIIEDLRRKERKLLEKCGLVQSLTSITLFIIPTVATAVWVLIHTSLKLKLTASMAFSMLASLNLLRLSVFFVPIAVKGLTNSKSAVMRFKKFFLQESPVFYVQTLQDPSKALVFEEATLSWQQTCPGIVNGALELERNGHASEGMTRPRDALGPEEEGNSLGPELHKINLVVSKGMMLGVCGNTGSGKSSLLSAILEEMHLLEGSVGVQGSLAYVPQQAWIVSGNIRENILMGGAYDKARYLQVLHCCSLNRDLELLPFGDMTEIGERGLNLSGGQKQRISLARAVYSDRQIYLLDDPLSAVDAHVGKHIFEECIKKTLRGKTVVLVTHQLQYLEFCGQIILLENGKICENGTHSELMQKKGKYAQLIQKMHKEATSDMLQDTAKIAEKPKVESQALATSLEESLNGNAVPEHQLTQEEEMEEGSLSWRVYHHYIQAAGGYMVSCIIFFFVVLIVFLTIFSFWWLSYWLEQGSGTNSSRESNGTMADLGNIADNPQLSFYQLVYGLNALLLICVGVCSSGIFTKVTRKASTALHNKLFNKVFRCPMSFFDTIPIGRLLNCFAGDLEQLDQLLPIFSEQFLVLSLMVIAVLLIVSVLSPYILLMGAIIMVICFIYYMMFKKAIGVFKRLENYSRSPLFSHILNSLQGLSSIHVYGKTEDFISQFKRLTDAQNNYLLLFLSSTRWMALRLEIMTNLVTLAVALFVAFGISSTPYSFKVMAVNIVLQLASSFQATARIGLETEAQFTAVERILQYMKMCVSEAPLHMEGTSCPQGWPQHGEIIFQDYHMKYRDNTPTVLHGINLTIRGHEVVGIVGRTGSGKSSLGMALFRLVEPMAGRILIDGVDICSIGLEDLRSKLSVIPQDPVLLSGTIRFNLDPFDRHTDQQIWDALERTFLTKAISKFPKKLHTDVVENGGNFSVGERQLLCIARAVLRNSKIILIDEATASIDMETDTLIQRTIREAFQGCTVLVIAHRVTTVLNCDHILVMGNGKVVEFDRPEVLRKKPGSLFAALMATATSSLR

Activity: substrate []
SMILES: O=c1[nH]c(=O)n([C@H]2C[C@H](O)[C@@H](COP(=O)(O)O)O2)cc1F
